# Experimental data reported in PMC10081362 (Research Square, 2023).
# Legend:
# OXTR [1] = biological target: T1, OXTR (Homo sapiens, UniProt P30559); test: Radioligand competitive binding assay (NIMH PDSP)
# T1 construct: host or cells: CHO-K1, stably transfected
# T1 sequence (P30559 1-389): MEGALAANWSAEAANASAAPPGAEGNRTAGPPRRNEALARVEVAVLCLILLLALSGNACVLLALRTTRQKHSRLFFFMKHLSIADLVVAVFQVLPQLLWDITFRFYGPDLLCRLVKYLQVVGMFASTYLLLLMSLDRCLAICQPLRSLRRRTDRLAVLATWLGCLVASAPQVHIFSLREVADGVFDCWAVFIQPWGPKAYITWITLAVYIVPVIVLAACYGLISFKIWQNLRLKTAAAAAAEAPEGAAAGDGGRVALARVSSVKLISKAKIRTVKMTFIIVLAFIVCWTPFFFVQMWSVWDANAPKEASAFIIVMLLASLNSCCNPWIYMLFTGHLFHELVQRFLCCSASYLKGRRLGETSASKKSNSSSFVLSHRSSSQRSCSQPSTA
# Description: Radioligand binding assays were carried out by the (NIMH) Psychoactive Drug Screening Program[61]. The detailed experimental protocols for the radioligand assay are available on the NIMH PDSP website at http://pdsp.med.unc.edu/UNC-CH%20Protocol%20Book.pdf. […] Binding data were analyzed and plotted using Prism 8 (GraphPad, San Diego, CA).
# [2] = system: OXTR+ neurons in the auditory cortex; type: cell-based, mouse
# Description: In vitro recordings were performed in acute slices of the auditory cortex prepared from male and female 2–5 month old OXTRcre∷Ai9 mice. Mice were deeply anesthetized with 5% isoflurane and perfused transcardially with ice-cold dissection buffer containing (in mM): 87 NaCl, 75 sucrose, 2.5 KCl, 1.25 NaH2PO4, 0.5 CaCl2, 7 MgCl2, 25 NaHCO3, 1.3 ascorbic acid, and 10 D-glucose, bubbled with 95%/5% O2/CO2 (pH 7.4). Following perfusion and decapitation, brains were removed and placed in the cold buffer solution, and slices (250–300 μm thick) were prepared with a vibratome (Leica P-1000). Slices were placed in warm artificial cerebrospinal fluid (ACSF, in mM: 124 NaCl, 2.5 KCl, 1.5 MgSO4, 1.25 NaH2PO4, 2.5 CaCl2, and 26 NaHCO3) (33–35 °C) for <30 minutes, then cooled to room temperature (22–24 °C) for at least 30 minutes before use. Slices were transferred to the recording chamber and superfused (2.5–3 ml min^−1) with oxygenated ACSF at 33 °C. Whole-cell current-clamp recordings were made from layer 2/3 pyramidal cells with a Multiclamp 200B or 700B amplifier (Molecular Devices, San Diego). Cortical regions and layers were identified using IR video microscopy (Olympus, Japan), and OXTR-positive neurons were identified based on expression of tdTomato, visualized with an Olympus 40 × water- immersion objective with TRITC filter. […]
# OXTR [3] = biological target: T1, OXTR; test: Calcium flux fluorescence assay (FLUO-8) in CHO-K1 cells stably expressing OXTR; type: cell-based
# Description: Stably transfected CHO-K1 cell lines overexpressing OXTR or V1a were obtained from Dr. Bryan Roth via the National Institute of Mental Health (NIMH) Psychoactive Drug Screening Program. The cells were cultured and maintained in Hams F12 medium (Gibco, Waltham, MA) supplemented with 400 μg/ml G418 (Gibco, Waltham, MA), 10% heat-inactivated FBS (Gibco, Waltham, MA), 15 mM HEPES (Gibco, Waltham, MA), 100 units ml^−1 of penicillin, 100 μg ml^−1 of streptomycin. The cells were grown in an atmosphere of 37°C and 8% CO2 and were passaged following trypsinization with Trypsin-LE (Gibco, Waltham, MA). CHO-K1 cells overexpressing OXTR were seeded overnight at 50,000 cells/100 μL/well in a black wall/clear bottom 96-well plate pretreated with poly-lysine (Gibco, Waltham, MA). […] The calcium flux assay was carried out on a FlexStation 3 Microplate Reader (Molecular Devices, San Jose, CA).
# [4] = UV-Vis absorption spectra upon 365 nm irradiation; type: physicochemical; conditions: 365 nm LED, 3 mW; 20 μM, 1% DMSO/PBS; absorption spectrum unchanged
# Description: All measurements were performed in the dark or under red light. Samples were stored at −20 °C. UV-Vis spectroscopy was performed using a Cary 60 UV-Vis Spectrophotometer equipped with a PCB 1500 High-Performance Peltier thermostat (Agilent Technologies, Santa Clara, CA). Samples were measured using ultra-micro cuvettes with a 10 mm light path (BrandTech, Essex, CT). Irradiation was performed using an Optoscan Monochromator equipped with an Optosource High-Intensity Arc Lamp (Cairn Research, Kent, UK) set to 15 nm full width at half maximum and installed with a 75 W UXL-S50A xenon arc lamp (USHIO, Tokyo, JP). The light source was set to 365 nm, and the power output was measured at the sample position using a PM100D compact power and energy meter console and S120VC Si photodiode sensor (Thorlabs, Newton, NJ). A constant 3 mW power output at 365 nm was maintained throughout the experiments. The monochromator was controlled using a custom MATLAB program, and data were analyzed and plotted using Prism 8 (GraphPad, San Diego, CA).
# For measuring the UV-visible absorption spectra, we prepared a […] DMSO stock solution of each respective compound, diluted to 20 μM (1% DMSO in PBS). A sample (1 mL) of the solution (20 μM) was transferred to a cuvette and measured by under ambient conditions (24 °C). […]
# [5] = system: mammary tissue from lactating GCaMP6f∷K5CreERT2 mice; test: Ex vivo three-dimensional time-lapse imaging of lactating mammary tissue; type: cell-based, mouse; conditions: 85 nM oxytocin in bath
# Description: Mammary glands were harvested from lactating GCaMP6f;K5CreERT2 mice diced into 3- to 4- mm^3 pieces and loaded with CellTracker Red (1.5 μM, ThermoFisher C34552, ThermoFisher, Waltham, MA) for at least 30 minutes in DMEM/F12 containing 10% FCS. Under these conditions, CellTracker preferentially labels luminal cells. […] Samples were imaged on a Leica TCS SP8 inverted microscope (Leica, Germany) with 20× 0.75NA HC PL APO CS2 objective. For uncaging, a region of interest (ROI) was targeted with a 405 nm laser at 100% laser power for 3s each trial. […] Protocol for image processing and analysis was previously reported in (Stevenson et al., 2020)[48].
smiles,measurement,setting,value
CC[C@H](C)[C@@H]1NC(=O)[C@H](Cc2ccc(OCc3ccccc3[N+](=O)[O-])cc2)NC(=O)[C@@H](N)CSSC[C@@H](C(=O)N2CCC[C@H]2C(=O)N[C@@H](CC(C)C)C(=O)NCC(N)=O)NC(=O)[C@H](CC(N)=O)NC(=O)[C@H](CCC(N)=O)NC1=O [cOT1],IC50,OXTR [1],2010 nM
same,toxic effects on neurons in slices,[2],without apparent toxic effects
CC[C@H](C)[C@@H]1NC(=O)[C@H](Cc2ccc(O)cc2)NC(=O)[C@@H](N)CSSC[C@@H](C(=O)N2CCC[C@H]2C(=O)N[C@@H](CC(C)C)C(=O)NCC(N)=O)NC(=O)[C@H](CC(N)=O)NC(=O)[C@H](CCC(N)=O)NC1=O [oxytocin],activation of OXTR+ cells in presence of OXTR antagonist OTA,"OXTR [3]; 1 μM agonist with 10 μM OTA, after photolysis with 365 nm LED, Fig. 2e",failed to activate
same,fluorescence (calcium flux),"OXTR [3]; oxytocin 1 μM, Fig. 2d, normalized to maximal response produced by oxytocin, mean ± SEM, n=5 wells",142.4±1.8
same,duration of stability towards 365 nm irradiation,[4],at least 30 minutes
same,peak depolarization of OXTR+ neurons,"[2]; 1 μM oxytocin wash-on, or cOT1 wash-in and 365 nm light pulsed at 20 Hz, Fig. 4k",significant membrane depolarization
same,calcium and contraction response to whole-tissue wash on,[5],"increase in intracellular calcium, followed by cell and alveolar contraction across all cells"
